Measurements published in PMC11012799 (Molecules, 2024).

Tests used:
Type in all cases: cell-based, human
HeLa cells [1] = experiment: cells; conditions: for IC50: Homo sapiens, 24 h, read-out: IC50 (µM) HeLa; for selectivity index (SI) HeLa: efficacy against HeLa versus normal fibroblasts L929, SI > 1.0 = greater efficacy against cancer cells
Experimental: (§1) Considering our previous research and the literature reports on the antitumor activity of aziridine derivatives, aziridine phosphines (1–4) and aziridine phosphine oxides (5–9) were tested to investigate their potential anticancer activity. The in vitro effects on cell viability were assessed using the 3-(4,5-dimethylthiazol-2-yl)-2,5-diphenyltetrazolium bromide (MTT) assay on non-tumorigenic murine fibroblasts (L929) as well as two cancer cell lines: human cervical epithelioid carcinoma (HeLa) cells and endometrial adenocarcinoma (Ishikawa) cells.
(§2) Cell viability inhibition: The in vitro effects on cell viability were determined using the 3-(4,5-dimethylthiazol-2-yl)-2,5-diphenyltetrazolium bromide (MTT) assay on non-tumorigenic murine fibroblasts L929 (ATTC®—CCL-1) as well as two cancer cell lines: human cervical epithelioid carcinoma HeLa cells (ATTC®—CCL-2™) and endometrial adenocarcinoma Ishikawa cells (ECACC 99040201). Cells were cultured on 96-well microplates at a density of 1 × 10^4 cells/well following the international in Dulbecco’s Modified Eagle’s Medium (DMEM, Biowest) supplemented with 10% fetal bovine serum (FBS, Biowest, Nuaillé, France), 100 U/mL of penicillin, and 100 μg/mL of streptomycin (Biowest, Nuaillé, France). After overnight incubation at 37 °C and 5% CO2, the growth medium was removed and 100 μL of fresh media with two-fold dilutions of the tested compounds at concentrations of 3.125–100 μM were added. […] Untreated cells in medium were used as a positive control, while a clear culture medium served as a negative control.

Ishikawa cells = experiment: cells; conditions: for IC50: Homo sapiens, Ishikawa, 24 h, read-out: IC50 (µM) Ishikawa; for selectivity index (SI) Ishikawa: efficacy against Ishikawa versus normal fibroblasts L929, SI > 1.0 = greater efficacy against cancer cells
Experimental: as §1, §2

HeLa cells [2] = experiment: Intracellular ROS measurement (H2DCFDA, flow cytometry); conditions: 24 h, concentration equal to IC50, H2DCFDA staining
Experimental: The intracellular ROS levels were evaluated using 2′,7′-dichlorofluorescein diacetate (H2DCFDA) staining. This cell membrane-permeable probe is deacetylated by cellular esterases to a non-fluorescent compound, which is then oxidized by ROS to 2′,7′-dichlorofluorescein (DCF), which remains in cells, is not removed from them, and emits strong fluorescence that can be quantified using a flow cytometer. To evaluate oxidative stress, HeLa cells were treated with the respective compound at a concentration equal to its IC50 value for 24 h, followed by staining with H2DCFDA. […]
Figure 5 Intracellular ROS generation in HeLa cells after treatment with 5 (blue) and 7 (green) for 24 h at 37 °C and 5% CO2. […] Oxidative stress was evaluated using H2DCFDA by flow cytometry. Data are expressed as the mean ± SD of two experiments. Statistical significance in comparison with the untreated control, measured by two-way analysis of variance (ANOVA) followed by Bonferroni multiple comparison test, is indicated by asterisks: (*) p < 0.05.
Reactive oxygen species measurement: The intracellular level of ROS was analysed by staining with 2′,7′–dichlorofluorescein diacetate (H2DCFDA, Sigma-Aldrich, Darmstadt, Germany). […] This product is highly fluorescent and can be detected on a flow cytometer. […]

Structure (SMILES) | IC50 (HeLa cells [1]) [µM] | selectivity index (SI) HeLa (HeLa cells [1]) | IC50 (Ishikawa cells) [µM] | selectivity index (SI) Ishikawa (Ishikawa cells) | intracellular ROS levels compared to untreated control (HeLa cells [2])
CC(C)[C@@H]1CN1c1ccccc1P(=O)(c1ccccc1)c1ccccc1 [Compound 5] | 6.4 ± 2.1 | 1.7 | 4.6 ± 2.3 | 2.3 | the effect was significant only for 5
CC(C)C[C@H]1CN1c1ccccc1P(=O)(c1ccccc1)c1ccccc1 [Compound 7] | 7.1 ± 2.6 | 2.5 | 10.5 ± 3.1 | 1.7 | increase in ROS levels
